According to patent US9868715B2 (THE BOARD OF REGENTS OF THE UNIVERSITY OF TEXAS SYSTEMS, priority 2014, dated 2018):

Experiments:
[1] = target: T1, human CBS (cystathionine-β-synthase) (Homo sapiens, UniProt P35520); assay: H2S production by recombinant CBS; assay type: biochemical; settings: 100 μM compound; H2S production as % of control (100%)
T1 construct: GST (N); made in house; host or cells: E. coli BL21(DE3) Codon Plus
T1 sequence (P35520 1-551): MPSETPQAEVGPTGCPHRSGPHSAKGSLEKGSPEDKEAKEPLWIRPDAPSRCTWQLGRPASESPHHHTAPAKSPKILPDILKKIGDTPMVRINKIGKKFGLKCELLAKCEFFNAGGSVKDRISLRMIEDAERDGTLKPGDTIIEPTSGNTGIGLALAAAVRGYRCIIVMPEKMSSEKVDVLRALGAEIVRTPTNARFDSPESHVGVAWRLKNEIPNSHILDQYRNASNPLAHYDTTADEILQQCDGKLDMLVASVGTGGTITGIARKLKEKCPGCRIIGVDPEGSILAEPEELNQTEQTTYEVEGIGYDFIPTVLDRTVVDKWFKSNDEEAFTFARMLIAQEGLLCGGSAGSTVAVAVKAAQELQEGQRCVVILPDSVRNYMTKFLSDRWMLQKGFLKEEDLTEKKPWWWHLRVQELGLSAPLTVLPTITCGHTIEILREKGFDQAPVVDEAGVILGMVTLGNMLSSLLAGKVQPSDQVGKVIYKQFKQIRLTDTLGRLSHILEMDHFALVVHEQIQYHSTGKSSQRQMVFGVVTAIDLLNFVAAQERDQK
Procedure: Recombinant human CBS protein expression and purification. The expression and purification of human CBS was performed as described previously (Asimakopoulou et al. 2013, Br J Pharmacol. 169(4):922-32). Briefly, E. Coli BL21(DE3) Codon Plus cells (Stratagene, La Jolla, Calif., USA) containing the expression vector pGEX-Kg/GST-CBS were grown at 37° C. and 180 rpm in LuriaBertani (LB) broth medium containing 100 μg/ml ampicillin to an absorption of 0.6-0.8 at 600 nm. Protein expression was induced by addition of 0.1 mM IPTG (isopropyl-b-D-thiogalactopyranoside) and cells were further incubated at 30° C. overnight. The bacteria were harvested and sonicated in lysis buffer PBS (140 mM NaCl, 2.7 mM KCl, 10 mM Na2HPO4, 1.8 mM KH2PO4, pH 7.8) containing a protease inhibitors cocktail (Sigma). The protein lysate was loaded onto a GSTrap FF 1 ml affinity column (Amersham Biosciences) and the GST-CBS recombinant protein was eluted with the elution buffer (50 mM Tris-HCl, 10 mM reduced glutathione, pH 8.0) and then dialyzed and concentrated in 10 mM sodium phosphate buffer (pH 8.2) and DTT (1 mM).
Measurement of H2S production by recombinant CBS. The measurement of H2S production by recombinant CBS enzyme was performed as described (Asimakopoulou et al. 2013, Br J Pharmacol. 169(4):922-32). Briefly, each test consisted of a 100 μl reaction mixture in 50 mM sodium phosphate buffer pH 8.2 containing 1 μg of the purified human CBS enzyme, 0.01 mM pyridoxal-5′-phosphate (PLP), 10 mM L-cysteine and 0.5 mM homocysteine. […] The reaction was initiated by transferring the Eppendorf tubes from ice to a 37° C. shaking water bath. After 60 minutes of incubation at 37° C., the reaction was terminated by adding 1% ZnAc followed by 10% trichloroacetic acid. Subsequently, N,N-dimethylphenylendiamine sulfate (20 mM in 7.2 M HCl) and FeCl3 (30 mM in 1.2 M HCl) were added and the optical absorbance of the solutions was measured at 650 nm.

[2] = system: transformed PSC (human pancreatic stellate cells); assay: PSC proliferation, AlamarBlue Cell Viability Assay; assay type: cell-based; settings: for inhibition at 20 µM / inhibition at 5 µM / inhibition at 10 µM: Homo sapiens, read-out: Inhibitory Effect (%) on PSC proliferation; for inhibition at 20 µM / Inhibitory Effect (%) on PSC proliferation / inhibition at 5 µM / inhibition at 10 µM: mean of at least three independent experiments, NE = No effect; for Antiproliferative effect on PSC, result in words: transformed PSC, AlamarBlue; for Inhibitory Effect (%) on PSC proliferation / inhibition at 10 µM: 10 μM
Procedure: The calculated lipophilicity (cLogP) and topological polar surface area (tPSA) values of synthesized analogues are listed in Table 1. […] AlamarBlue is a non-toxic reagent that is converted to a highly fluorescent end product by viable cells.
Under an IRB-approved tissue protocol, discarded human resected pancreatic tissue (500 mm^3) was attained fresh from the operating room at the University of Texas Medical Branch. The tissue was minced and plated on a collagen-coated flask (15 μg/mL, Invitrogen) with DMEM (VWR; Radnor, Pa.) supplemented with penicillin 200 U/mL, streptomycin 200 μg/mL, amphotericin B 0.25 μg/mL and gentimicin 50 μg/mL (Invitrogen, Carlsbad Calif.), 10% fetal bovine serum (Lonza, Walkersville, Md.), 1% insulin-transferrin, selenium-ethanolamine (Gibco, Grand Island, N.Y.), and 1% non-essential amino acids (Sigma-Aldrich, St. Louis, Mo.). The human PSC were isolated by the outgrowth method.^41-43 The purity of PSC culture was confirmed by immunohistochemical staining for vimentin, α-smooth muscle actin, glial fibrillar acidic protein, or Oil red O staining. Primary PSC were transformed and immortalized for use in experiments using lentiviral vectors containing SV40 Large T antigen and human telomerase (plasmid #12245 and 12246; Addgene, Cambridge, Mass.). Cultures were maintained in DMEM with 10% FBS, at 37° C. in a humidified 95% O2/5% CO2 atmosphere.
Cell proliferation assay. Transformed PSC (3×10^3) were plated in 96-well plates, in sextuplicate. […] AlamarBlue reagent (10% sample volume, DAL1025) was added to each well per Invitrogen's protocol. Fluorescence was recorded using excitation/emission wavelengths of 544/590 nm and the SpectraMax M2 Microplate Reader (Molecular Devices, Sunnyvale Calif.).
Statistical analysis. Dose-response curves were generated by plotting fluorescence or absorbance versus log (compound concentration). A best-fit curve was created using nonlinear regression, and the IC50 or EC50 determined from the graph (GraphPad Prism 5; GraphPad Software Inc., La Jolla, Calif.). To analyze continuos variables, unpaired student t-tests and one-way ANOVA with Tukey-Kramer multiple comparisons post-test (GraphPad Prism 5). Significance was set at p<0.05.

Row | Structure (SMILES) | activity at 100 µM [1] [%] | melting point [°C] | inhibition at 20 µM [2] [%] | Antiproliferative effect on PSC, result in words [2] | Inhibitory Effect (%) on PSC proliferation [2] [%] | inhibition at 5 µM [2] [%] | inhibition at 10 µM [2] [%]
1 | COc1cc(OC)c2c(=O)cc(-c3ccc(O)cc3)oc2c1 [Compound 6, 2-(4-Hydroxy-phenyl)-5,7-dimethoxy-chromen-4-one] | 130 |  |  |  |  |  | 
2 | COc1cc(OC)c2c(=O)cc(-c3ccc(OCCBr)cc3)oc2c1 [Compound 7, 2-(4-(2-Bromoethoxy)phenyl)-5,7-dimethoxy-chromen-4-one] | 121 | 202 to 203 | 20 | slightly increased antiproliferative effects in comparison with 6 |  |  | 
3 | COc1cc(OC)c2c(=O)cc(-c3ccc(OCCF)cc3)oc2c1 [Compound 8, 2-(4-(2-Fluoroethoxy)phenyl)-5,7-dimethoxy-chromen-4-one] | 127 | 187 to 188 | 21 | slightly increased antiproliferative effects in comparison with 6 |  |  | 
4 | COc1cc(OC)c2c(=O)cc(-c3ccc(OC4CCN(C)CC4)cc3)oc2c1 [Compound 9, 5,7-Dimethoxy-2-(4-(1-methylpiperidin-4-yloxy)phenyl)-chromen-4-one] | 122 | 143 to 144 |  |  | 49 | 28 | 49
5 | COc1cc(OC)c2c(=O)cc(-c3ccc(OCCN(C)C)cc3)oc2c1 [Compound 10, 2-(4-(2-Dimethylaminoethoxy)phenyl)-5,7-dimethoxy-chromen-4-one] | 125 | 153 to 154 | 65 |  | 51 | 19 | 51
6 | COc1cc(OC)c2c(=O)cc(-c3ccc(OCCN4CCOCC4)cc3)oc2c1 [Compound 11, 5,7-Dimethoxy-2-(4-(2-morpholin-4-yl-ethoxy)phenyl)-chromen-4-one] | 117 | 149 to 150 |  |  |  |  | 
7 | COc1cc(OC)c2c(=O)cc(-c3ccc(OCCCN(C)C)cc3)oc2c1 [Compound 12, 2-(4-(3-Dimethylaminopropoxy)phenyl)-5,7-dimethoxy-chromen-4-one] | 83.9 | 105 to 106 | 86 |  | 59 | 36 | 59
8 | COc1cc(OC)c2c(=O)cc(-c3ccc(OCCN4CCCC4=O)cc3)oc2c1 [Compound 13, 1-(2-(4-(5,7-Dimethoxy-4-oxo-4H-chromen-2-yl)phenoxy)ethyl)-pyrrolidin-2-one] | 108 | 115 to 116 | 33 |  |  | 7 | 14
9 | COc1cc(OC)c2c(=O)cc(-c3ccc(OCCN4CCN(C)CC4)cc3)oc2c1 [Compound 15, 5,7-Dimethoxy-2-(4-(2-(4-methylpiperazin-1-yl)ethoxy)phenyl)-chromen-4-one] | 124 | 144 to 145 | 67 |  |  | 22 | 42

Continued, in another order:

Row | activity at 100 µM [1] [%] | melting point [°C] | Structure (SMILES) | inhibition at 20 µM [2] [%] | Antiproliferative effect on PSC, result in words [2] | Inhibitory Effect (%) on PSC proliferation [2] [%] | inhibition at 5 µM [2] [%] | inhibition at 10 µM [2] [%]
10 | 106 | 116 to 117 | CCN(CC)CCOc1ccc(-c2cc(=O)c3c(OC)cc(OC)cc3o2)cc1 [Compound 17, 2-(4-(2-Diethylaminoethoxy)-phenyl)-5,7-dimethoxy-chromen-4-one] | 72 |  |  | 33 | 60
11 | 116 | 121 to 122 | COC(=O)[C@@H]1CCCN1CCOc1ccc(-c2cc(=O)c3c(OC)cc(OC)cc3o2)cc1 [Compound 18, 1-(2-(4-(5,7-Dimethoxy-4-oxo-4H-chromen-2-yl)phenoxy)ethyl)-pyrrolidine-2-carboxylic acid methyl ester] | 67 |  |  | 22 | 37
12 | 115 | 205 to 206 | COc1cc(OC)c2c(=O)cc(-c3ccc(OC4CCNCC4)cc3)oc2c1 [Compound 19, 5,7-Dimethoxy-2-(4-(piperidin-4-yloxy)-phenyl)-chromen-4-one] |  |  |  |  | 21
13 | 119 | 165 to 166 | COc1cc(OC)c2c(=O)cc(-c3ccc(OCCN)cc3)oc2c1 [Compound 20, 2-(4-(2-Aminoethoxy)-phenyl)-5,7-dimethoxy-chromen-4-one] | 70 |  |  | 6 | 35
14 | 116 | 170 to 171 | COc1cc(OC)c2c(=O)cc(-c3ccc(OCCCN)cc3)oc2c1 [Compound 21, 2-(4-(3-Aminopropoxy)-phenyl)-5,7-dimethoxy-chromen-4-one] |  |  |  | 22 | 39
15 | 85.9 | 137 to 138 | COc1cc(OC)c2c(=O)cc(-c3ccc(OCC(O)CN4CCCC4)cc3)oc2c1 (centres unmarked) [Compound 25, 2-(4-(2-Hydroxy-3-pyrrolidin-1-yl-propoxy)phenyl)-5,7-dimethoxy-chromen-4-one] | 57 |  |  | 21 | 37
16 | 117 | 92 to 93 | COc1cc(OC)c2c(=O)cc(-c3ccc(OCC(O)CN(C)C)cc3)oc2c1 (centres unmarked) [Compound 26, 2-(4-(3-Dimethylamino-2-hydroxypropoxy)-phenyl)-5,7-dimethoxy-chromen-4-one] | 71 |  |  | 42 | 60
17 | 69.4 |  | COc1cc(OC)c2c(=O)cc(-c3ccc(Br)cc3)oc2c1 [Compound 31, 2-(4-Bromophenyl)-5,7-dimethoxy-chromen-4-one] | 22 |  |  | 12 | 10
